Test results as given in US20200339691A1, “PROTEINACEOUS MOLECULES AND USES THEREFOR” (priority 2018, published 2020).
Where a SMILES comes first, the peptide text is derived from it. The star is where a group is joined. Myristoyl = CCCCCCCCCCCCCC(=O)*

Experiments:
[1] = tested on: CD44^hiCD24^lo CSCs in MDA-MB-231 cells; assay: FACS analysis of CD44^hiCD24^lo cancer stem cells in MDA-MB-231 cells treated with P1 analogues; type: cell-based, human; conditions: 50 μM peptide, 48 hours; for CD44^hiCD24^lo CSCs (%) / COI, Live Single CD44^hiCD24^lo CSCs (Cell Count): n = 1; for Average Inhibition of CSCs (%) / CD44^hiCD24^lo CSCs (%) Repeat 1 / CD44^hiCD24^lo CSCs (%) Repeat 2 / CD44^hiCD24^lo CSCs (%) Repeat 3: n = 3
Description: Analogues of P1 (Table 6) were designed and synthesized in accordance with the procedure of Example 5. The ability of these analogues to inhibit cancer stem cells was determined using FACS analysis on MDA-MB-231 cells, which constitutively contain approximately 90% CD44^hiCD24^lo cancer stem cells, treated with the peptides.
(§1) Non-adherent cells were removed during the washing steps.

MDA-MB-231 cells = type: cell-based, human; conditions: 50 μM peptide, 48 hours, n = 1
Excerpt: as §1
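Wherever COI, Live Single Cells (Cell Count) is given: live means Hoechst-negative events among single cells.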

Row | Compound | Inhibition of CSCs (%) Repeat 1 [1] | Inhibition of CSCs (%) Repeat 2 [1] | Inhibition of CSCs (%) Repeat 3 [1] | CD44^hiCD24^lo CSCs (%) [1] | COI, Live Single CD44^hiCD24^lo CSCs (Cell Count) [1] | Average Inhibition of CSCs (%) [1] | CD44^hiCD24^lo CSCs (%) Repeat 1 [1] | CD44^hiCD24^lo CSCs (%) Repeat 2 [1] | CD44^hiCD24^lo CSCs (%) Repeat 3 [1] | COI (Cell Count) (MDA-MB-231 cells) | COI, Live Single Cells (Cell Count) (MDA-MB-231 cells) | COI, Single (Cell Count) (MDA-MB-231 cells) | Total Cell Count (MDA-MB-231 cells)
1 | CCCCCCCCCCCCCC(=O)N[C@@H](CC(C)C)C(=O)N[C@H](C(=O)N[C@@H](Cc1ccccc1)C(=O)N[C@H](C(=O)N[C@@H](Cc1ccccc1)C(=O)N[C@@H](CCCNC(=N)N)C(=O)N[C@@H](CC(C)C)C(=O)N[C@@H](CCCCN)C(=O)N[C@@H](CCCCN)C(=O)NCC(=O)N[C@@H](CCCNC(=N)N)C(=O)N[C@@H](CCSC)C(=O)N[C@@H](CCSC)C(=O)N[C@@H](CC(=O)O)C(=O)N[C@H](C(=O)N[C@@H](CCCCN)C(=O)N[C@@H](CCCCN)C(N)=O)C(C)C)[C@@H](C)CC)[C@@H](C)O [Peptide 2853824, Myristoyl-LTFIFRLKKGRMMDVKK-NH2] (Myristoyl-LTFIFRLKKGRMMDVKK-NH2) | 77.86% | 79.50% | 76.91% | 16.54% | 619 | 78.09% | 19.85% | 18.39% | 20.72% | 4232 | 3743 | 3768 | 5455
2 | CCCCCCCCCCCCCC(=O)N[C@@H](CC(C)C)C(=O)N[C@H](C(=O)N[C@@H](Cc1ccccc1)C(=O)N[C@H](C(=O)N[C@@H](Cc1ccccc1)C(=O)N[C@@H](CCCNC(=N)N)C(=O)N[C@@H](CC(C)C)C(=O)N[C@@H](CCCNC(=N)N)C(=O)N[C@@H](CCCCN)C(=O)NCC(=O)N[C@@H](CCCNC(=N)N)C(=O)N[C@@H](CCSC)C(=O)N[C@@H](CCCCN)C(=O)N[C@@H](CC(=O)O)C(=O)N[C@H](C(=O)N[C@@H](CCCCN)C(=O)N[C@@H](CCCCN)C(N)=O)C(C)C)[C@@H](C)CC)[C@@H](C)O [Peptide 2853835, Myristoyl-LTFIFRLRKGRMKDVKK-NH2] (Myristoyl-LTFIFRLRKGRMKDVKK-NH2) | 90.70% | 90.45% | 89.87% | 2.50% | 1 | 90.34% | 8.33% | 8.57% | 9.09% | 1733 | 40 | 1292 | 8580
3 | CCCCCCCCCCCCCC(=O)N[C@@H](CC(C)C)C(=O)N[C@H](C(=O)N[C@@H](Cc1ccccc1)C(=O)N[C@H](C(=O)N[C@@H](Cc1ccccc1)C(=O)N[C@@H](CCCNC(=N)N)C(=O)N[C@@H](CC(C)C)C(=O)N[C@@H](CCCNC(=N)N)C(=O)N[C@@H](CCCCN)C(=O)NCC(=O)N[C@@H](CCCNC(=N)N)C(=O)N[C@@H](CCSC)C(=O)N[C@@H](CCSC)C(=O)N[C@@H](CC(=O)O)C(=O)N[C@H](C(=O)N[C@@H](CCCCN)C(=O)N[C@@H](CC(C)C)C(N)=O)C(C)C)[C@@H](C)CC)[C@@H](C)O [Peptide 2853846, Myristoyl-LTFIFRLRKGRMMDVKL-NH2] (Myristoyl-LTFIFRLRKGRMMDVKL-NH2) | 61.79% | 63.60% | 62.39% | 27.88% | 87 | 62.59% | 34.25% | 32.66% | 33.75% | 370 | 312 | 330 | 10000
4 | CCCCCCCCCCCCCC(=O)N[C@@H](CC(C)C)C(=O)N[C@H](C(=O)N[C@@H](Cc1ccccc1)C(=O)N[C@H](C(=O)N[C@@H](Cc1c[nH]cn1)C(=O)N[C@@H](CCCNC(=N)N)C(=O)N[C@@H](CC(C)C)C(=O)N[C@@H](CCCNC(=N)N)C(=O)N[C@@H](CCCCN)C(=O)NCC(=O)N[C@@H](CCCNC(=N)N)C(=O)N[C@@H](CCSC)C(=O)N[C@@H](CCSC)C(=O)N[C@@H](CC(=O)O)C(=O)N[C@H](C(=O)N[C@@H](CCCCN)C(=O)N[C@@H](CCCCN)C(N)=O)C(C)C)[C@@H](C)CC)[C@@H](C)O [Peptide 2853815, Myristoyl-LTFIHRLRKGRMMDVKK-NH2] (Myristoyl-LTFIHRLRKGRMMDVKK-NH2) | 6.67% | 7.21% | 8.72% | 71.33% | 199 | 7.53% | 83.65% | 83.25% | 81.91% | 320 | 279 | 300 | 1114
5 | CCCCCCCCCCCCCC(=O)N[C@@H](CC(C)C)C(=O)N[C@H](C(=O)N[C@@H](Cc1ccccc1)C(=O)N[C@H](C(=O)N[C@@H](Cc1ccccc1)C(=O)N[C@@H](CCCNC(=N)N)C(=O)N[C@@H](CCC(=O)O)C(=O)N[C@@H](CCCNC(=N)N)C(=O)N[C@@H](CCCCN)C(=O)NCC(=O)N[C@@H](CCCNC(=N)N)C(=O)N[C@@H](CCSC)C(=O)N[C@@H](CCSC)C(=O)N[C@@H](CC(=O)O)C(=O)N[C@H](C(=O)N[C@@H](CCCCN)C(=O)N[C@@H](CCCCN)C(N)=O)C(C)C)[C@@H](C)CC)[C@@H](C)O [Peptide 2853821, Myristoyl-LTFIFRERKGRMMDVKK-NH2] (Myristoyl-LTFIFRERKGRMMDVKK-NH2) | 85.54% | 87.64% | 89.89% | 13.00% | 289 | 87.69% | 12.96% | 11.09% | 9.08% | 2756 | 2223 | 2240 | 7421
6 | CCCCCCCCCCCCCC(=O)N[C@@H](C)C(=O)N[C@@H](Cc1ccccc1)C(=O)N[C@H](C(=O)N[C@@H](Cc1ccccc1)C(=O)N[C@@H](CCCNC(=N)N)C(=O)N[C@@H](CC(C)C)C(=O)N[C@@H](CCCNC(=N)N)C(=O)N[C@@H](CCCCN)C(=O)NCC(=O)N[C@@H](CCCNC(=N)N)C(=O)N[C@@H](CCSC)C(=O)N[C@@H](CCSC)C(=O)N[C@@H](CC(=O)O)C(=O)N[C@H](C(=O)N[C@@H](CCCCN)C(=O)N[C@@H](CCCCN)C(N)=O)C(C)C)[C@@H](C)CC [Peptide 2815302, Myristoyl-AFIFRLRKGRMMDVKK-NH2] (Myristoyl-AFIFRLRKGRMMDVKK-NH2) | 89.69% | 91.79% | 94.73% | 19.63% | 86 | 92.07% | 9.24% | 7.36% | 4.73% | 516 | 438 | 466 | 5074
